# From BindingDB's records for doi:10.7270/Q2ZC819K (Burnham Center For Chemical Genomics, 2009)
# Target: Polyadenylate-binding protein 1 (Homo sapiens, UniProt P11940)
# Test: blockers of PABP interaction with poly(A) – biochemical, fluorescence polarization, uHTS, primary screen (AID 2014)
# Polyadenylate-binding protein 1, sequence (P11940 whole entry): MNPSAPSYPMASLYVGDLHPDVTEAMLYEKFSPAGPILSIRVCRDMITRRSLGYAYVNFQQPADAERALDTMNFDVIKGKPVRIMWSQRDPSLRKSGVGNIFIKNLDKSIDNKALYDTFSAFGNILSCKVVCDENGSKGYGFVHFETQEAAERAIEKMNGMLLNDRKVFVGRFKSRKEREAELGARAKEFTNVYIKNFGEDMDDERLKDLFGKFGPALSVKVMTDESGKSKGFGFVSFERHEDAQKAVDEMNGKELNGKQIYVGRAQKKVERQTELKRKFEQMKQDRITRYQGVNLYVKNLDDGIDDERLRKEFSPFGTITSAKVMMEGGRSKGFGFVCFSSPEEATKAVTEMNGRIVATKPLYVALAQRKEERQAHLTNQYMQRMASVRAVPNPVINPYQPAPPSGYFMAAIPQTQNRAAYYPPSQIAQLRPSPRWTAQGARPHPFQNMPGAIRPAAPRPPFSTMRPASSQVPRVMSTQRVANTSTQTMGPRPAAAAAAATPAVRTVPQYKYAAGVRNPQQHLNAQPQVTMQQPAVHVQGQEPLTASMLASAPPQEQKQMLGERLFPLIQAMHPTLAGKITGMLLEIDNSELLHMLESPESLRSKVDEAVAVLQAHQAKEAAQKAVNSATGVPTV
row,SMILES,IC50 [µM]
1,O=C(O)c1ccc(N=NCc2cc3c(cc2[N+](=O)[O-])OCO3)cc1,48.8
2,COc1ccc2c(c1)=C(NNC(=O)Cc1cccs1)C(=O)N=2,31
3,"CCn1c(=NC(=O)c2ccc(-n3c(O)ccc3O)cc2)sc2c(OC)ccc(OC)c21 [4-[2,5-bis(oxidanylidene)pyrrolidin-1-yl]-N-(3-ethyl-4,7-dimethoxy-1,3-benzothiazol-2-ylidene)benzamide]",100
4,"CC1(C)Oc2ccc3ccc(=O)oc3c2C(CN=O)=C1Cl [9-chloro-2-keto-8,8-dimethyl-pyrano[2,3-f]chromene-10-carbaldehyde oxime]",10.3
5,COc1cc(C)cc(C(=O)O)c1C1C(=O)C(=O)c2c(O)cccc2C1=O (centres undefined) [MLS000877007],5.41
6,O=C1N=c2ccccc2=C1NNC(=O)c1cc(-c2cccs2)n[nH]1 [N'-(2-oxoindol-3-yl)-5-thiophen-2-yl-1H-pyrazole-3-carbohydrazide],28.8
7,CC1=NC(=O)NC(c2ccco2)C1C(=O)OC(C)C (centres undefined) [SMR000120838],42.8
8,"COc1ccc(CN=Nc2nc(O)c(CC(=O)O)s2)cc1OCc1ccc(Cl)cc1Cl [[2-({3-[(2,4-dichlorobenzyl)oxy]-4-methoxybenzylidene}hydrazono)-4-oxo-1,3-thiazolidin-5-yl]acetic acid]",64.3
9,"CC[N+](C)(CC)CCCC(N=O)C(O)(c1ccccc1)c1ccccc1 (centres undefined) [diethyl-(5-hydroxy-4-hydroxyimino-5,5-diphenylpentyl)-methylammonium;iodide]",5.57
